Drawing on ChEMBL document CHEMBL2073831, “Biliary transport of irinotecan and metabolites in normal and P-glycoprotein-deficient mice” (Cancer Chemother Pharmacol, 2002), this text covers Activity for one molecule.

The target of this series is P-glycoprotein 1 and 3 (MDR1a/MDR1b) (Mus musculus, UniProt P21447+P06795). In words: TP_TRANSPORTER: decrease in biliary excretion in mdr1a/1b(-/-) mouse. The class given is functional, organism-based, Bile. As to conditions: in vivo.

With `CCc1c2c(nc3ccc(OC(=O)N4CCC(N5CCCCC5)CC4)cc13)-c1cc3c(c(=O)n1C2)COC(=O)[C@]3(O)CC` [IRINOTECAN], the Activity result was “substrate [+]”.
